Experimental findings from patent US20230287003A1, “BCL6 INHIBITORS” (Cancer Research Technology Limited, priority 2018, published 2023) are described below.

A value given as a limit tells only on which side of the number the result lay.

In the first assay the target is human BCL6 BTB domain (Trx-6×His-BCL6) / BCOR-AF633 peptide (Homo sapiens (Human), UniProt P41182). The experiment in a line: HTRF assay. The conditions noted are these: 1 nM Trx-6×His-BCL6, 300 nM BCOR-AF633 peptide, 2 hours incubation. It counts as binding. In general terms: In TR-FRET formats the signal depends on donor and acceptor labels being close together.
Experimental: The % inhibition at each concentration was calculated by normalising FRET ratio to the appropriate high (DMSO with all reagents) and low (DMSO without BCL6) controls.
`C[C@H]1CCOc2c(c3cc(Nc4cc(C(=O)N5CCC5)nc(Cl)c4C#N)ccc3n(C)c2=O)N1` [Example 3a, (S)-6-(azetidine-1-carbonyl)-2-chloro-4-((2,7-dimethyl-6-oxo-1,2,3,4,6,7-hexahydro-[1,4]oxazepino[2,3-c]quinolin-10-yl)amino)nicotinonitrile]: the “HTRF avg pIC50 (1 nM)” value is 6.88. Same read-out and setting: with `O=c1c2c(c3cc(Nc4nc(N5C6CCC5COC6)ncc4Cl)ccc3n1CC1CC1)N[C@@H](C1CC1)CCO2` [Example 5r, (R)-10-((2-(3-oxa-8-azabicyclo[3.2.1]octan-8-yl)-5-chloropyrimidin-4-yl)amino)-2-cyclopropyl-7-(cyclopropylmethyl)-1,2,3,4-tetrahydro-[1,4]oxazepino[2,3-c]quinolin-6(7H)-one] the figure was 7.41. Turning to `CN1CCN(c2ncc(F)c(Nc3ccc4c(c3)c3c(c(=O)n4C)OCC(F)(F)[C@H](C4CC4)N3)n2)CC1=O` [Example 13i, (S)-2-cyclopropyl-3,3-difluoro-10-((5-fluoro-2-(4-methyl-3-oxopiperazin-1-yl)pyrimidin-4-yl)amino)-7-methyl-1,2,3,4-tetrahydro-[1,4]oxazepino[2,3-c]quinolin-6(7H)-one], the “HTRF avg pIC50 (1 nM)” value is given as 8.45. In the case of `CN1CC2CC(C1)N2c1ncc(Cl)c(Nc2ccc3c(c2)c2c(c(=O)n3C)OCC(F)(F)[C@H](C3CC3)N2)n1` [Example 13h, (2S)-10-((5-chloro-2-(3-methyl-3,6-diazabicyclo[3.1.1]heptan-6-yl)pyrimidin-4-yl)amino)-2-cyclopropyl-3,3-difluoro-7-methyl-1,2,3,4-tetrahydro-[1,4]oxazepino[2,3-c]quinolin-6(7H)-one: formic acid (1:1)], the “HTRF avg pIC50 (1 nM)” value came out at 8.43. On the same count and under the same terms, with `Cn1c(=O)c2c(c3cc(Nc4nc(N5CCC(F)(F)[C@@H](O)C5)ncc4Cl)ccc31)N[C@@H](C1CC1)CCO2` (single isomer, unassigned) [Example 12z, (R)-10-((5-chloro-2-((S)-4,4-difluoro-3-hydroxypiperidin-1-yl)pyrimidin-4-yl)amino)-2-cyclopropyl-7-methyl-1,2,3,4-tetrahydro-[1,4]oxazepino[2,3-c]quinolin-6(7H)-one or (R)-10-((5-chloro-2((R)-4,4-difluoro-3-hydroxypiperidin-1-yl)pyrimidin-4-yl)amino)-2-cyclopropyl-7-methyl-1,2,3,4-tetrahydro-[1,4]oxazepino[2,3-c]quinolin-6(7H)-one] the figure was 7.52; with `Cn1c(=O)c2c(c3cc(Nc4ccnc(Cl)c4C#N)ccc31)NC(C(F)F)CCO2` (centres unmarked) [Example 1p, 2-chloro-4-((2-(difluoromethyl)-7-methyl-6-oxo-1,2,3,4,6,7-hexahydro-[1,4]oxazepino[2,3-c]quinolin-10-yl)amino)nicotinonitrile], 5.67.

Consider `CC1CCc2c(c3cc(Nc4ccnc(Cl)c4C#N)ccc3n(C)c2=O)N1` (centres unmarked) [Example 10a, 2-chloro-4-((2,6-dimethyl-5-oxo-1,2,3,4,5,6-hexahydrobenzo[h][1,6]-naphthyridin-9-yl)amino)nicotinonitrile], for which the “HTRF avg pIC50 (1 nM)” value was found to be 5.84.

On to `C[C@H]1CN(c2ncc(Cl)c(Nc3ccc4c(c3)c3c(c(=O)n4C)OCC[C@H](C4CC4)N3)n2)CCC1(F)F` (single isomer, unassigned) [Example 14a, (R)-10-((5-chloro-2-((S)-4,4-difluoro-3-methylpiperidin-1-yl)pyrimidin-4-yl)amino)-2-cyclopropyl-7-methyl-1,2,3,4-tetrahydro-[1,4]oxazepino[2,3-c]quinolin-6(7H)-one or (R)-10-((5-chloro-2-((R)-4,4-difluoro-3-methylpiperidin-1-yl)pyrimidin-4-yl)amino)-2-cyclopropyl-7-methyl-1,2,3,4-tetrahydro-[1,4]oxazepino[2,3-c]quinolin-6(7M)-one], for which the “HTRF avg pIC50 (1 nM)” value is on record as 6.74. For the compound “(S)-10-((5-chloro-2-((1S,5R)-3-methyl-2-oxo-3,8- diazabicyclo[3.2.1]octan-8-yl)pyrimidin-4-yl)amino)-2-cyclopropyl- 3,3-difluoro-7-methyl-1,2,3,4-tetrahydro-[1,4]oxazepino[2,3-c]quinolin- 6(7H)-one and (S)-10-((5-chloro-2-((1R,5S)-3-methyl-2-oxo-3,8- diazabicyclo[3.2.1]octan-8-yl)pyrimidin-4-yl)amino)-2-cyclopropyl- 3,3-difluoro-7-methyl-1,2,3,4-tetrahydro- [1,4]oxazepino[2,3-c]quinolin-6(7H)-one [Example 13b]”, the “HTRF avg pIC50 (1 nM)” value came to 8.59. Turning to “(R)-10-((5-chloro-2-((R)-4,4-difluoro-3- (hydroxymethyl)piperidin-1-yl)pyrimidin-4-yl)amino)-2- cyclopropyl-7-methyl-1,2,3,4-tetrahydro- [1,4]oxazepino[2,3-c]quinolin-6(7H)-one or (R)-10-((5-chloro- 2-((S)-4,4-difluoro-3-(hydroxymethyl)piperidin-1-yl)pyrimidin- 4-yl)amino)-2-cyclopropyl-7-methyl-1,2,3,4-tetrahydro- [1,4]oxazepino[2,3-c]quinolin-6(7H)-one [Example 15b]”, the “HTRF avg pIC50 (1 nM)” value was 7.51. Regarding “(S)-10-((5-chloro-2-((S)-4,4-difluoro-3- (hydroxymethyl)piperidin-1-yl)pyrimidin-4-yl)amino)-2-cyclopropyl- 3,3-difluoro-7-methyl-1,2,3,4-tetrahydro-[1,4]oxazepino[2,3-c]quinolin- 6(7H)-one or (S)-10-((5-chloro-2-((R)-4,4-difluoro-3- (hydroxymethyl)piperidin-1-yl)pyrimidin-4-yl)amino)-2-cyclopropyl- 3,3-difluoro-7-methyl-1,2,3,4-tetrahydro-[1,4]oxazepino[2,3-c]quinolin- 6(7H)-one [Example 12q]”, the “HTRF avg pIC50 (1 nM)” value is on record as 8.65. Still for that read-out and setting: with `C[C@@H]1CN(c2ncc(Cl)c(Nc3ccc4c(c3)c3c(c(=O)n4CCO)OCC[C@H](C4CC4)N3)n2)C[C@H](C)C1(F)F` [Example 16a, (R)-10-((5-chloro-2-((3S,5R)-4,4-difluoro-3,5-dimethylpiperidin-1-yl)pyrimidin-4-yl)amino)-2-cyclopropyl-7-(2-hydroxyethyl)-1,2,3,4-tetrahydro-[1,4]oxazepino[2,3-c]quinolin-6(7H)-one] the figure was 7.17; with `CC1Nc2c(c(=O)n(C)c3ccc(Nc4ccnc(Cl)c4C#N)cc23)OCC12CC2` (centres unmarked) [Example 1i, 2-chloro-4-((2′,7′-dimethyl-6′-oxo-1′,2′,6′,7′-tetrahydro-4′H-spiro[cyclopropane-1,3^′-[1,4]oxazepino[2,3-c]quinolin]-10^′-yl)amino)nicotinonitrile], 5.97. Same read-out and setting: under “(R)-10-((5-chloro-2-((R)-4,4-difluoro-3- hydroxypiperidin-1-yl)pyrimidin-4-yl)amino)-2-cyclopropyl-7- methyl-1,2,3,4-tetrahydro-[1,4]oxazepino[2,3-c]quinolin-6(7H)- one or (R)-10-((5-chloro-2((S)-4,4-difluoro-3-hydroxypiperidin-1- yl)pyrimidin-4-yl)amino)-2-cyclopropyl-7-methyl-1,2,3,4- tetrahydro-[1,4]oxazepino[2,3-c]quinolin-6(7H)-one [Example 12y]” stands 7.73; under `CC1CNC(=O)c2c(c3cc(Nc4ccnc(Cl)c4C#N)ccc3n(C)c2=O)N1` (centres unmarked) [Example 18a, 2-chloro-4-((2,7-dimethyl-5,6-dioxo-2,3,4,5,6,7-hexahydro-1H-[1,4]diazepino[6,5-c]quinolin-10-yl)amino)nicotinonitrile], 6.58; under `Cn1c(=O)c2c(c3cc(Nc4ccnc(Cl)c4C#N)ccc31)NC(C1CCC1)CO2` (centres unmarked) [Example 1n, 2-chloro-4-((2-cyclobutyl-6-methyl-5-oxo-2,3,5,6-tetrahydro-1H-[1,4]oxazino[2,3-c]quinolin-9-yl)amino)nicotinonitrile], 5.70.

For the compound `C[C@H]1COCc2c(c3cc(Nc4ccnc(Cl)c4C#N)ccc3n(C)c2=O)N1` [Example 9a, (S)-2-chloro-4-((2,7-dimethyl-6-oxo-1,2,3,5,6,7-hexahydro-[1,4]oxazepino[6,5-c]quinolin-10-yl)amino)nicotinonitrile], the “HTRF avg pIC50 (1 nM)” value was 5.66. On the same count and under the same terms, under `C[C@H]1COC(=O)c2c(c3cc(Nc4nc(N5CCC6(CCCN(C)C6=O)CC5)ncc4Cl)ccc3n(C)c2=O)N1` [Example 8e, (S)-10-((5-chloro-2-(2-methyl-1-oxo-2,9-diazaspiro[5.5]undecan-9-yl)pyrimidin-4-yl)amino)-2,7-dimethyl-2,3-dihydro-[1,4]oxazepino[6,5-c]quinoline-5,6(1H,7H)-dione] stands 6.69.

The assay is the same for the next values; noted with them: read-out: IC50 in the HTRF assay.
Take `Cn1c(=O)c2c(c3cc(Nc4ccnc(Cl)c4C#N)ccc31)NC(C1CCC1)CCO2` (centres unmarked) [2-chloro-4-((2-cyclobutyl-7-methyl-6-oxo-1,2,3,4,6,7-hexahydro-[1,4]oxazepino[2,3-c]quinolin-10-yl)amino)nicotinonitrile]: the IC50 is greater than 2500 nM. For the compound `Cn1c(=O)c2c(c3cc(Nc4ccnc(Cl)c4C#N)ccc31)NC(CC1CC1)CO2` (centres unmarked) [2-chloro-4-((2-(cyclopropylmethyl)-6-methyl-5-oxo-2,3,5,6-tetrahydro-1H-[1,4]oxazino[2,3-c]quinolin-9-yl)amino)nicotinonitrile], the IC50 was greater than 2500 nM. Same read-out and setting: with `CC(=O)N1CC2CC(C1)CN(c1ncc(Cl)c(Nc3ccc4c(c3)c3c(c(=O)n4C)C(=O)OC[C@H](C)N3)n1)C2` [(2S)-10-((2-(7-acetyl-3,7-diazabicyclo[3.3.1]nonan-3-yl)-5-chloropyrimidin-4-yl)amino)-2,7-dimethyl-2,3-dihydro-[1,4]oxazepino[6,5-c]quinoline-5,6(1H,7H)-dione] the figure was greater than 2500 nM.

The next assay concerns the target BCL6-NCOR2(SMRT) corepressor protein-protein interaction (Homo sapiens (Human), UniProt P41182). Put plainly: NanoBRET cell assay. It counts as cell-based. Conditions: read-out: NanoBRET cell avg pIC50 (converted). The text has this: At 20 hr post-transfection, cells were collected, washed with PBS, and exchanged into media containing phenol red-free OptiMEM+4% FBS (Life Technology).
For orientation: In BRET a luciferase serves as donor, and the signal depends on an acceptor being close.
Regarding `C[C@H]1CCOc2c(c3cc(Nc4cc(C(=O)N5CCC5)nc(Cl)c4C#N)ccc3n(C)c2=O)N1` [Example 3a, (S)-6-(azetidine-1-carbonyl)-2-chloro-4-((2,7-dimethyl-6-oxo-1,2,3,4,6,7-hexahydro-[1,4]oxazepino[2,3-c]quinolin-10-yl)amino)nicotinonitrile], the IC50 was 4790 nM. Turning to `O=c1c2c(c3cc(Nc4nc(N5C6CCC5COC6)ncc4Cl)ccc3n1CC1CC1)N[C@@H](C1CC1)CCO2` [Example 5r, (R)-10-((2-(3-oxa-8-azabicyclo[3.2.1]octan-8-yl)-5-chloropyrimidin-4-yl)amino)-2-cyclopropyl-7-(cyclopropylmethyl)-1,2,3,4-tetrahydro-[1,4]oxazepino[2,3-c]quinolin-6(7H)-one], the IC50 was 43.7 nM.
